Measurements as given in patent publication US20260232594A1, “EXCIPIENT COMPOSITION FOR THE PREPARATION OF AMORPHOUS SOLID DISPERSONS/SOLUTIONS” (UNIVERSITÄTSKLINIKUM HAMBURG-EPPENDORF, priority 2023, published 2026).
Structures can show the parent of a compound that is named as a salt.

Legend:
[1] = Extrusion experiments with BZ in place of CD, extrudate analyzed via HPLC; type: physicochemical; conditions: extrusion 125-155° C.
Description: For LD and BZ analytics a separate HPLC method was developed for the same equipment. The mobile phase was a 95:5 mixture of aforementioned hydrogen phosphate buffer (pH 2.5) and methanol. LD was detected at 280 nm and BZ at 268 nm. Retention times were 3.41 min (BZ) and 4.41 min (LD). The calibration for LD was the same as in the above-named method and BZ was calibrated in the same range as CD.
Following the dissolution experiments and the subsequently adapted thermoanalyses to further investigate the thermolability of CD, extrusion experiments with BZ were conducted. For these experiments, the CD (P25/29-M) was substituted with BZ. The formulation was extruded between 125-155° C. and the extrudate analyzed via HPLC.

[2] = Particle size analysis by laser light diffraction; type: physicochemical; conditions: Fraunhofer method
Description: Laser diffraction measurements were performed with a LS 13 320 laser diffraction particle size analyzer equipped with a Tornado DPS module (Beckman Coulter Inc, Brea, CA, USA). Each API, excipient and the blend of batch P25/29-M were measured five times. Particle sizes were calculated using the Fraunhofer method.

[3] = type: physicochemical
Description: DSC analyzes were carried out with a DSC 1 device (Mettler-Toledo, LLC, Columbus, OH, USA) operated with STARe Software V16.10. Each single component of the formulation as well as the powder blend and the extruded filament (both P25/29-M) were analyzed. Three different methods were utilized. Nitrogen was used as a purging gas at a flow rate of 50 mL/min. Every sample was heated to 250° C. (10° C./min) and kept at this temperature for 5 min. CD, LD, mannitol and the powder blend were also heated (10° C./min) to and kept at 185° C. (10 min), then cooled to 25° C. (20° C./min) and kept at this temperature for 5 min and reheated to 185° C. (10° C./min) and kept at this temperature for 10 min. Ultimately, CD and the powder blend were also heated to 182° C. (10° C./min) and kept at this temperature for 30 min.

[4] = Stability analysis: storage in constant climate chambers, API content by HPLC; type: physicochemical; conditions: in P25/29-M small Donuts
Description: Small Donuts of P25/29-M were packed in FDS/Proud packaging material Unit Dose Bags (UDB) using a FDS II Proud 336 device (Baxter International Inc., Deerfield, Il, USA) or brown glass stored in constant climate chambers (KBF P 240 and KBF S 240; Binder GmbH; Tuttlingen, Germany). […] Samples packed in UDB were stored for 7 days or 28 days in each of the previously mentioned conditions. Samples in brown glass were stored for 28 days in the 25° C./60% RH condition. After storage, the API contents of the samples were analyzed via HPLC as described in 2.2.6. Each sampling time comprised three samples.

[5] = Thermogravimetric analysis (TGA), thermal stability; type: physicochemical; conditions: for temperature at which mass loss / decomposition starts (thermogram): 40 to 300° C.
Description: TGA analyzes were carried out with a Discovery TGA (TA Instruments, Waters, LLC, U.S.A.) and data was collected and analyzed with TA Instruments Trios software and percent mass loss or onset temperature were calculated. Two different methods were utilized. Both APIs were subjected to a temperature ramp of 10° C./min starting at 40° C. and concluding at 300° C. in open aluminum pans. CD was additionally subjected to an isothermal stress test at 180° C. for 30 min.

[6] = 3D printing of tablets by direct powder extrusion (DPE): printability and API tolerance; conditions: printing temperature 180° C.
From the text: The previously blended powders were 3D printed using a M3DIMAKER™ equipped with a DPE printhead coupled with a 0.4 mm nozzle (FabRx Ltd., London, United Kingdom). Computer-aided design (CAD) models of tablets were designed using Autodesk Tinkercad (Autodesk Inc., Mill Valley, CA, U.S.A.) and processed with Repetier-Host software (Hot-World GmbH & Co. KG, Willich, Germany). To enhance powder flow, the M3DIMAKER™ was modified with a stirring element 4 (see FIG. 1).
Tablets were printed using the following parameters: printing temperature: 180° C.; first layer height: 0.6 mm, layer height: 0.15-0.30 mm (adaptive slicing), infill: 60-100%, travel speed 70 mm/s, first layer speed 5 mm/s, perimeter speed 7.5-15 mm/s, infill speed: 15-20 mm/s with zero (Oblongs) or one (Cylinders and Donuts) top layer, two bottom layers and two shells.

[7] = Dissolution of printed tablets, Ph. Eur. 2.9.3, 0.1 M HCl, paddle 100 rpm, HPLC; type: physicochemical
Description: Dissolution experiments were carried out according to Ph. Eur. 10.6; 2.9.3 (EDQM, Ph. Eur.), with a Premiere 5100 Dissolution System (Distek Inc., North Brunswick Township, NJ, USA). […] The paddle speed was set to 100 rpm. Samples were taken after 5, 10, 15, 20, 30, 45, 60 and 90 min. A sinker was used for analyzes. For all small tablets and the large Oblongs a Distek “Japanese Basket” was used, whereas a custom 3D printed polylactic acid (PLA) sinker (not shown) was used for the large Cylinders and the large Donuts. If applicable, the dissolution profiles were compared using the f2 comparison (Moore and Flanner 1996).
The API content of the powder blend and the dissolution samples were analyzed and evaluated with a Nexera XR HPLC system and LabSolutions software version 6.83 (both Shimadzu Corp., Nakagyo-ku, Kyoto, Japan). The Nexera XR HPLC system consists of two degassing units (DGU-20A5R) and two HPLC-pumps (LC-20ADXR) as well as an autosampler (SIL-20ACXR) a column oven (FCV-34AH) and a communication bus module (CBM-20A). Samples were dissolved and diluted in 0.1 M HCl. Turbid samples were filtered through a 0.22 μm PTFE Filter. Prior to each analytical sequence, the column was equilibrated for 30 min and the autosampler purged for 5 min. HPLC samples were measured in duplicate with an injection volume of 20 μL. […]

For `NC(CO)C(=O)NNCc1ccc(O)c(O)c1O` (stereo not shown) [BZ, Benserazide-HCl], the “substance lost during extrusion” value [1] was “More than 70%”.
With `C[C@@](Cc1ccc(O)c(O)c1)(NN)C(=O)O` [CD, Carbidopa] the “particle size d50” value [2] was 15.3 μm, the “time of exposition until decomposition begins (isothermal DSC)” value ([3]; 182° C. isothermal) was 7 to 8 min and the “storage stability (in words)” value ([4]; brown glass, and 25/60, 7 in UDB) was “moderate stability”. The “loss in mass over the first 10 min (isothermal TGA)” value ([5]; 180° C. isothermal) was “more than 20%”, the “mass loss in the thermogram (release of hydrate water)” value ([5]; between ca. 90-140° C., ramp 10° C./min) was “about 8%” and the “temperature at which mass loss / decomposition starts (thermogram)” value ([5]; ramp 10° C./min) was “about 195 °C”. The “tolerance of the printing process (in words)” value [6] was “degraded partially during the printing process”, the “substance lost during extrusion” value ([7]; CD, much higher extrusion temperatures (printing 180° C.)) was 30-40% and the “CD recovered from the completely dissolved tablets” value ([7]; after the printing process) was 60-70%.
For `N[C@@H](Cc1ccc(O)c(O)c1)C(=O)O` [LD, Levodopa], the “particle size d50” value [2] was 51.8 μm, the “temperature up to which no degradation was found (DSC and TGA)” value [3] was > 250 °C and the storage time tolerated ([4]; both conditions (25/60, 40/75) and packagings) was “at least 28 days”. The “temperature at which mass loss / decomposition starts (thermogram)” value ([5]; ramp 10° C./min) was “about 275 °C” and the “tolerance of the printing process (in words)” value [6] was “able to tolerate the printing temperature”.
With `OC[C@@H](O)[C@@H](O)[C@H](O)[C@H](O)CO` [mannitol, Mannitol] the “particle size d50” value [2] was 345 μm.
